Data taken from ChEMBL document CHEMBL1201862, “PubChem BioAssay data set” (2004).
Each block holds one compound with its values, some of them ahead of it. The source made the active and inactive calls.

What was measured:
[1] = target: T1, Kappa-type opioid receptor (Homo sapiens, UniProt P41145); assay: SAR analysis of small molecule agonists of the kappa opioid receptor via a luminescent beta-arrestin assay. [Related pubchem assays (depositor defined):AID1777, AID1786, AID1966, AID2133, AID2136, AID2348, AID2352, AID2357, AID2359, AID2370, AID2420, AID2478, AID2491, AID2492, AID2493, AID2497, AID2498, AID2500, AID449737, AID488822, AID488842]; assay type: functional
T1 sequence (P41145 whole entry): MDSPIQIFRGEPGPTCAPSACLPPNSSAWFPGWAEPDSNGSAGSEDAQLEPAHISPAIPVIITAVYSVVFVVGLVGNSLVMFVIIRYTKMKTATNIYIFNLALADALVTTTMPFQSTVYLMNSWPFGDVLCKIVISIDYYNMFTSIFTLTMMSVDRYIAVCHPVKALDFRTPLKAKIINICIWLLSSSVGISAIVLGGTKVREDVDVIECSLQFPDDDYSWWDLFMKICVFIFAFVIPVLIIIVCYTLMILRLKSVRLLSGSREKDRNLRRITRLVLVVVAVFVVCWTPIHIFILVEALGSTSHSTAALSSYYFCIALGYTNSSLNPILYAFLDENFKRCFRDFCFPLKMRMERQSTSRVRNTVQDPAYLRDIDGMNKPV

Mu-type opioid receptor [2] = target: T2, Mu-type opioid receptor (Homo sapiens, UniProt P35372); assay: MOR antagonists, SAR follow-up, image-based (AID 2420); assay type: functional;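 note: compounds added before stimulation of receptor with agonist DAMGO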
T2 sequence (P35372 whole entry): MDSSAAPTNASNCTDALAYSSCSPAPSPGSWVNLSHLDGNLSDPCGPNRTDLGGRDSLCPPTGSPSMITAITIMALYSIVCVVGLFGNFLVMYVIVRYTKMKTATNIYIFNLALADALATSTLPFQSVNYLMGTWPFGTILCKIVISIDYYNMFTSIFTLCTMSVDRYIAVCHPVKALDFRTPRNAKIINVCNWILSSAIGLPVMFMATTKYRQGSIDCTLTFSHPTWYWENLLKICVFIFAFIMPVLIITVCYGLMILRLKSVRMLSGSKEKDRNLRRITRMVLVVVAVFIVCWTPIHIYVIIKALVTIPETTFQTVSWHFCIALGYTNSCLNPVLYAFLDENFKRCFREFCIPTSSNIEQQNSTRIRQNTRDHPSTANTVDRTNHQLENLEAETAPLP

[3] = target: T1, Kappa-type opioid receptor; assay type: functional
[4] = target: T3, Delta-type opioid receptor (Homo sapiens, UniProt P41143); assay: DOR agonists, SAR follow-up, image-based (AID 2370); assay type: functional
T3 sequence (P41143 whole entry): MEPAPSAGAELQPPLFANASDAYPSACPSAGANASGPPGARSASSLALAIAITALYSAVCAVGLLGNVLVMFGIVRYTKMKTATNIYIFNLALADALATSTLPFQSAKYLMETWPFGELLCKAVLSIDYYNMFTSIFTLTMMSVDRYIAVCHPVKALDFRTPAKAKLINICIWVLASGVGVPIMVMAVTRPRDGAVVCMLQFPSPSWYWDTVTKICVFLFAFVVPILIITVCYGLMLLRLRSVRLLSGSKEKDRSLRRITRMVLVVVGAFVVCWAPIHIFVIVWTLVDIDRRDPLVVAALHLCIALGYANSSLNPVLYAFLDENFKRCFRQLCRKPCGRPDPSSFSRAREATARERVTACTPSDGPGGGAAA

[5] = target: T1, Kappa-type opioid receptor; assay type: functional; remark: listed apart in the source
[6] = target: T3, Delta-type opioid receptor; assay: HTS Image-Based Screen for Antagonists of the DOR Receptor. [Related pubchem assays (depositor defined):AID1777, AID1785, AID1786, AID2133]; assay type: functional
[7] = target: T1, Kappa-type opioid receptor; assay: KOR agonist analogs, imaging readout, SAR follow-up, image-based (AID 2359); assay type: functional
[8] = target: T3, Delta-type opioid receptor; assay: HTS Image-Based Screen for Agonists of the DOR Receptor. [Related pubchem assays (depositor defined):AID1777, AID1786, AID2133]; assay type: functional
Mu-type opioid receptor [9] = target: T2, Mu-type opioid receptor; assay: HTS Image-Based Screen for Agonists of the MOR Receptor. [Related pubchem assays (depositor defined):AID1777, AID1785, AID1786, AID2133]; assay type: functional
[10] = target: T3, Delta-type opioid receptor; assay: DOR antagonists, SAR follow-up, image-based (AID 2357); assay type: functional
Mu-type opioid receptor [11] = target: T2, Mu-type opioid receptor; assay: MOR agonists by imaging, SAR follow-up, image-based (AID 2352); assay type: functional
Coagulation factor XII = target: T4, Coagulation factor XII (Homo sapiens, UniProt P00748); assay type: functional;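 note: activated factor XIIa alpha cleaving a fluorogenic AMC peptide substrate; inhibitor potency from loss of enzyme activity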
T4 sequence (P00748 whole entry): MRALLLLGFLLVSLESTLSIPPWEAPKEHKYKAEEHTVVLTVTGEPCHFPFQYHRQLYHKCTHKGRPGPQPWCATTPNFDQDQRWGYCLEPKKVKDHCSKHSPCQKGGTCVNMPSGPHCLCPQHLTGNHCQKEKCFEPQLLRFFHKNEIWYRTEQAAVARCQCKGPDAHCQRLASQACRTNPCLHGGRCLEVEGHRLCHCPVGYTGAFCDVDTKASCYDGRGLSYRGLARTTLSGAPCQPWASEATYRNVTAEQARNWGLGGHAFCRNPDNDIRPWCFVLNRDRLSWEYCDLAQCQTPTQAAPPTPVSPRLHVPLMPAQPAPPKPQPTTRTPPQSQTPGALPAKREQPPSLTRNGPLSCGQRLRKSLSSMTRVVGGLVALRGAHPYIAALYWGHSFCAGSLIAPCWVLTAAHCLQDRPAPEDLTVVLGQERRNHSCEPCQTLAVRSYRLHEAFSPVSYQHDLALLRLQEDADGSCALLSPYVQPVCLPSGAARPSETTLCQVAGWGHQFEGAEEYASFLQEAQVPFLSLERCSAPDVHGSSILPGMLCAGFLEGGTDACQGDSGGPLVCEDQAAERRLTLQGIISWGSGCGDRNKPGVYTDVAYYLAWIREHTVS

[12] = target: T1, Kappa-type opioid receptor; assay: KOR antagonists by imaging, SAR follow-up, image-based (AID 2348); assay type: functional
[13] = target: T1, Kappa-type opioid receptor; assay: SAR analysis of small molecule agonists of the kappa opioid receptor via a luminescent beta-arrestin assay - Set 3. [Related pubchem assays (depositor defined):AID1777, AID1785, AID1786, AID1966, AID2133, AID2136, AID2284, AID2500]; assay type: functional
[14] = target: T5, Zinc finger protein mex-5 (Caenorhabditis elegans, UniProt Q9XUB2); assay: MEX-5/TCR-2 RNA interaction inhibitors, dose response, biochemical, C. elegans, fluorescence polarization (AID 1960)
T5 sequence (Q9XUB2 whole entry): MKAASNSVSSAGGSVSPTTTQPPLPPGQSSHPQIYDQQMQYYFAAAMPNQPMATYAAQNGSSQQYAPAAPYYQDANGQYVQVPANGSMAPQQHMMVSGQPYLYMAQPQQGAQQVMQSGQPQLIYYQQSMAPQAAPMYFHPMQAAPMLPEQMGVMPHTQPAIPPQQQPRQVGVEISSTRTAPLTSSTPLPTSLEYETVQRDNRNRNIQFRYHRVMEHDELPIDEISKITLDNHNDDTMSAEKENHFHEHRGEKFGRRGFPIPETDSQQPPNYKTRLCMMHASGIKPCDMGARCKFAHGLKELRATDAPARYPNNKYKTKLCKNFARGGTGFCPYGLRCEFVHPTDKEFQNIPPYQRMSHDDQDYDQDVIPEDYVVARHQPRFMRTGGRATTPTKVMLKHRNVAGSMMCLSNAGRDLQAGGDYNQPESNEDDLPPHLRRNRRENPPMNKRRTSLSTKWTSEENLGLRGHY

Large T antigen = Large T antigen (Simian virus 40, UniProt P03070); assay type: functional, Betapolyomavirus macacae;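 note: Confirmatory-stage PubChem screen for compounds that inhibit SV40 T antigen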
Sequence of Large T antigen (P03070 whole entry, the tested form may be a part): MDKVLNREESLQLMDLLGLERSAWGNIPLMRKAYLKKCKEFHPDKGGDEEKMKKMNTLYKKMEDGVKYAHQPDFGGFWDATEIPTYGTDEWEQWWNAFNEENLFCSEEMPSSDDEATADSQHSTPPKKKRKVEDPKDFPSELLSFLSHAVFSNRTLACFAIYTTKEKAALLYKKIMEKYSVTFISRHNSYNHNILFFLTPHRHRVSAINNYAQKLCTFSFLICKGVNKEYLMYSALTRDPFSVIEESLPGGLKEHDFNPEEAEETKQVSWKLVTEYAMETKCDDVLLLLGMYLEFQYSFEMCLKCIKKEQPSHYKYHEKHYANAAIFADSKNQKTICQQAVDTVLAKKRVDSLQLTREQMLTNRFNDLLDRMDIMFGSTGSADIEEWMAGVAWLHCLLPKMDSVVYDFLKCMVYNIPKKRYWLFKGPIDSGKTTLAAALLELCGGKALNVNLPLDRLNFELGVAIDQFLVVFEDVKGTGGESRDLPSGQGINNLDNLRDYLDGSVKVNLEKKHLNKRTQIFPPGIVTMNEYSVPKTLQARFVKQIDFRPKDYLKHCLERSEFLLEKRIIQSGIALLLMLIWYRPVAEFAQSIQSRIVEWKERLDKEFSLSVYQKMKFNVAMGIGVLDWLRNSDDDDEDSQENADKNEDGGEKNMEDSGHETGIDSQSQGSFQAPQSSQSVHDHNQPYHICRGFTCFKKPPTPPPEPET

[15] = target: T6, RNA-binding protein pos-1 (Caenorhabditis elegans, UniProt G5EF15); assay: inhibitors of POS-1/mex-3 RNA binding, dose response, biochemical, fluorescence polarization (AID 1964);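 note: purified POS-1 fused to maltose binding protein made in E. coli; potency of compounds blocking POS-1 binding to fluorescent RNA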
T6 sequence (G5EF15 whole entry): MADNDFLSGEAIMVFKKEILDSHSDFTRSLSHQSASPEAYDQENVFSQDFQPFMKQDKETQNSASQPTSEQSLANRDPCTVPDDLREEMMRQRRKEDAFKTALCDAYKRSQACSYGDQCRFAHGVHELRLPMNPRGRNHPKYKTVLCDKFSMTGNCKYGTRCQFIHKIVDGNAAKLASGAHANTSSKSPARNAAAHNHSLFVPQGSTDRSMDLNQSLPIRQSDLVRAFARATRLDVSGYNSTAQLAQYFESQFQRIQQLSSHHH

[16] = target: Intestinal-type alkaline phosphatase (Mus musculus, UniProt P24822); assay: PubChem AID 488785; assay type: functional
Sequence of Intestinal-type alkaline phosphatase (Mus musculus, UniProt P24822) (P24822 whole entry): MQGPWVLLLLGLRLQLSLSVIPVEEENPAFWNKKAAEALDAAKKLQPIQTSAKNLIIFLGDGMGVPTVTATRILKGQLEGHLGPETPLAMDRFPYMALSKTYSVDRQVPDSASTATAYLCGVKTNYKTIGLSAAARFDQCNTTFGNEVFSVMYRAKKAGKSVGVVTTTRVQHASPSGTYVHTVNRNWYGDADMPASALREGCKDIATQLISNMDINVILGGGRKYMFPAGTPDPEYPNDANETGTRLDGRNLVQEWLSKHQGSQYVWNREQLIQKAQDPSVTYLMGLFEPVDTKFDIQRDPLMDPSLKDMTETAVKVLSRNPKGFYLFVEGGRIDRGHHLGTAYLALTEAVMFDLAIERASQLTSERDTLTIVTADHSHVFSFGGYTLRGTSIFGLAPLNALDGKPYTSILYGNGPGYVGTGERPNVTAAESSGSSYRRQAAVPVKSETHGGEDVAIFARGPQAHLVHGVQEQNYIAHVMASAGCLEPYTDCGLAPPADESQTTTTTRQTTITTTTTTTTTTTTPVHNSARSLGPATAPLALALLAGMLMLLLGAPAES

[17] = target: T7, Alkaline phosphatase, tissue-nonspecific isozyme (Homo sapiens, UniProt P05186); assay: TNAP enzyme inhibition by screening hits, dose response, selectivity assay for mouse IAP inhibitor project, biochemical, human TNAP, uHTS hits (AID 488906); assay type: functional
T7 sequence (P05186 whole entry): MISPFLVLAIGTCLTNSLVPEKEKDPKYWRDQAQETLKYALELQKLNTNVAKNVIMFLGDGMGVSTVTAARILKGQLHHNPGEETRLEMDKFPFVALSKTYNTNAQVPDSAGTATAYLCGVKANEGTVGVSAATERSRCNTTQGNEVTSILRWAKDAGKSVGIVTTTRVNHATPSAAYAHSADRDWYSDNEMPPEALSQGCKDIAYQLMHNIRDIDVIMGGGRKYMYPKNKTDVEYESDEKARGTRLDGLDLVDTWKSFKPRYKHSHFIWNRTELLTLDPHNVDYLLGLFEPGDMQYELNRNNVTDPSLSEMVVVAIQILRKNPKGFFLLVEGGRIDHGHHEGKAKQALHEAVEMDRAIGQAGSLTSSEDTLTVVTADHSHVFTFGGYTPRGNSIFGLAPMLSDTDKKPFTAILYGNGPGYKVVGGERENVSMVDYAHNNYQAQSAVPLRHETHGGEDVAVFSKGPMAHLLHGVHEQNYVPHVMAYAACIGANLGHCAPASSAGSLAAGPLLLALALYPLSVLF

[18] = target: Intestinal-type alkaline phosphatase (Homo sapiens, UniProt P09923); assay: inhibition of human intestinal alkaline phosphatase – biochemical, dose response (AID 488876); assay type: functional
[19] = target: Sphingosine 1-phosphate receptor 1 (Homo sapiens, UniProt P21453); assay: Fluorescence-based counterscreen assay for S1P4 agonists: Cell-based dose response high throughput screening assay to identify agonists of the Sphingosine 1-Phosphate Receptor 1 (S1P1). [Related pubchem assays (depositor defined):AID1509, AID1523, AID1801, AID463107, AID463118, AID463119, AID463122, AID463123, AID463129, AID463225, AID504400, AID504460]; assay type: functional
[20] = target: Sphingosine 1-phosphate receptor 4 (Homo sapiens, UniProt O95977); assay: Fluorescence dose response cell-based high throughput screening assay for agonists of the Sphingosine 1-Phosphate Receptor 4 (S1P4). [Related pubchem assays: 1509 (Primary screen.), 1523 (Confirmation screen in triplicates.)]; assay type: functional
Sequence of Sphingosine 1-phosphate receptor 4 (O95977 whole entry): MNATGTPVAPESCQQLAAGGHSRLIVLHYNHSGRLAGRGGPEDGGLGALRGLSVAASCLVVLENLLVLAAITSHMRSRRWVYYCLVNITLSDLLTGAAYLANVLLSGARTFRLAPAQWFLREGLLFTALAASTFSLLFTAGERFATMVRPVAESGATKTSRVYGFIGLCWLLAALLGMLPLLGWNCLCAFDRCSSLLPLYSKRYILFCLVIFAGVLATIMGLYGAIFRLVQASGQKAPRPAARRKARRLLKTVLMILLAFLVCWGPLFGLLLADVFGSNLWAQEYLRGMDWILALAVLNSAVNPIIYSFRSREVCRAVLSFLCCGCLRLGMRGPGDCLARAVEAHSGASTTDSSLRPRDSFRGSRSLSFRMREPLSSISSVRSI

[21] = target: FAD-linked sulfhydryl oxidase ALR (Homo sapiens, UniProt P55789); assay: inhibitors of human ALR sulfhydryl oxidase, dose response, biochemical, H2O2 detection, luminescence, cherry-pick (AID 493248)
Sequence of FAD-linked sulfhydryl oxidase ALR (P55789 whole entry): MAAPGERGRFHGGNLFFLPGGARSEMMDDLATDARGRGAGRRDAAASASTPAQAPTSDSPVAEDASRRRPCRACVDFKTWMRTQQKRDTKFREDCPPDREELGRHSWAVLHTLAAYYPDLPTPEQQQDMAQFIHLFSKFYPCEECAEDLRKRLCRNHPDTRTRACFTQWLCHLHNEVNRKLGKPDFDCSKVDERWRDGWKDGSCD

[22] = target: Peroxisome proliferator-activated receptor gamma/Nuclear receptor coactivator 3 (Homo sapiens, UniProt P37231); assay: (§1) TR-FRET dose response biochemical High Throughput Screening assay for agonists of the steroid receptor coactivator 3 (SRC-3) recruitment by the peroxisome proliferator-activated receptor gamma (PPAR gamma): non-selective agonists. [Related pubchem assays: 1301 (Confirmation screen.), 1048 (Primary screen.)]; assay type: functional
[23] = target: Peroxisome proliferator-activated receptor gamma/Nuclear receptor coactivator 1 (Homo sapiens, UniProt P37231); assay: as §1, with “1 (SRC-1)” for “3 (SRC-3)”, “assays (depositor defined):AID1300, AID1808, AID504735, AID631]” for “assays: 1301 (Confirmation screen.), 1048 (Primary screen.)]”; assay type: protein assay
[24] = target: Peroxisome proliferator-activated receptor gamma/Nuclear receptor coactivator 2 (Homo sapiens, UniProt P37231); assay: TR-FRET dose response biochemical High Throughput Screening assay for agonists of the steroid receptor coactivator 2 (SRC-2) recruitment by the peroxisome proliferator-activated receptor gamma (PPAR gamma): non-selective agonists. [Related pubchem assays: 1297, 1032 ]; assay type: functional
Sequence of Peroxisome proliferator-activated receptor gamma/Nuclear receptor coactivator 2 (P37231 whole entry): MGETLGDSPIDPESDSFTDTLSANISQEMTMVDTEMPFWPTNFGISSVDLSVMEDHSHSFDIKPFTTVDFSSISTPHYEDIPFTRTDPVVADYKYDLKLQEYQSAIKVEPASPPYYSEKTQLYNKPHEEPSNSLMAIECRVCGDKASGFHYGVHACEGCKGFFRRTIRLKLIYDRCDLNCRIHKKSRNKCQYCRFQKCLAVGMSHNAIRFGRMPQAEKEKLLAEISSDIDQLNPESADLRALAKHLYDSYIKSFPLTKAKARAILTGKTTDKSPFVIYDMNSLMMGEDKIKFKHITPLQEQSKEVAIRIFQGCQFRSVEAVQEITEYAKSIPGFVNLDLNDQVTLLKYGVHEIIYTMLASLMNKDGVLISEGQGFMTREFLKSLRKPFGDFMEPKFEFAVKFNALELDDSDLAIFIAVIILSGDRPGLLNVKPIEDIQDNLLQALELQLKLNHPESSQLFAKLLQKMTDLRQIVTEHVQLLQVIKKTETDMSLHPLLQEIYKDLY
Sequence of Peroxisome proliferator-activated receptor gamma/Nuclear receptor coactivator 2 (Q15596 whole entry, further chain): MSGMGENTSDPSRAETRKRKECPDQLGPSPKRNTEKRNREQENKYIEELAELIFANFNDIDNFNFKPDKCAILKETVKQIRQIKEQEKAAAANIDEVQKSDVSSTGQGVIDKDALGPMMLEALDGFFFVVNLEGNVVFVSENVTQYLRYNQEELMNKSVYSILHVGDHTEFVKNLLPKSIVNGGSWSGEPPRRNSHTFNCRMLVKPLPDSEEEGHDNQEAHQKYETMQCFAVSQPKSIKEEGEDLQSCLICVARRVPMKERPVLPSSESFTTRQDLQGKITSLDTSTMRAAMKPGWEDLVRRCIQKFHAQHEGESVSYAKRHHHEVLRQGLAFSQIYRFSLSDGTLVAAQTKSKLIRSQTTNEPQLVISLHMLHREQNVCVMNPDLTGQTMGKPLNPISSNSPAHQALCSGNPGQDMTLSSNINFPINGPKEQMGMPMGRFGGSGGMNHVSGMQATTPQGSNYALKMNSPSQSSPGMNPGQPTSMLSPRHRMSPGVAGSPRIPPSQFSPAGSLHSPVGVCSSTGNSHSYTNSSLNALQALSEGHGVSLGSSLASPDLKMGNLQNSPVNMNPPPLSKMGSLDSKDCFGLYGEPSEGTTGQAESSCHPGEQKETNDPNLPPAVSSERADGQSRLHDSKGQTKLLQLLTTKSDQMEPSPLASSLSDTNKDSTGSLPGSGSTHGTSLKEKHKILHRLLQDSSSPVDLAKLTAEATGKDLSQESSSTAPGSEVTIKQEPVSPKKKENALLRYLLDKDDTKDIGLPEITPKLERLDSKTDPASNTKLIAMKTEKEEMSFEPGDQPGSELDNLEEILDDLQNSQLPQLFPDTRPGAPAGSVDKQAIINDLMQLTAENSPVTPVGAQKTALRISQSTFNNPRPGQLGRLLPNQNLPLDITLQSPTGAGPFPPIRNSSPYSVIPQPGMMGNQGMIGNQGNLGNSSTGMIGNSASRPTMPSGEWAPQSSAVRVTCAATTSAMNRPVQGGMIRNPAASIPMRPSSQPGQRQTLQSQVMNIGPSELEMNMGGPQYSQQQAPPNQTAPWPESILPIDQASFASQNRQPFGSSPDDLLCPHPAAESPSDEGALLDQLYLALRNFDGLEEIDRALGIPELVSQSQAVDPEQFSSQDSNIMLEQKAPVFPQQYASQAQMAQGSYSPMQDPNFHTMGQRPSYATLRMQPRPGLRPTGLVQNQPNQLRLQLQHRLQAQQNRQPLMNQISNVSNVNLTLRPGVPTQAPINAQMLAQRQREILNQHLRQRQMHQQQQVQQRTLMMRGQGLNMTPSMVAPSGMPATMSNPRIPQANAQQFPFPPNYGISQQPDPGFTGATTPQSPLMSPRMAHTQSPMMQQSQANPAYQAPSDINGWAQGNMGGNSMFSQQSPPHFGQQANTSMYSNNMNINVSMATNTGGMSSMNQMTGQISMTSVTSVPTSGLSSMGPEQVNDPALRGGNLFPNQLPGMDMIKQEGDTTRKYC

SMILES: COc1ccc(Cn2c(SCc3ccc(Br)cc3)nnc2-c2ccccn2)cc1
- EC50 [13]: > 20 µM (inactive)

SMILES: CCNC(=O)NC(=O)C(C)OC(=O)c1c(C)nn(Cc2ccccc2)c1Cl (stereo unspecified)
- EC50 [19]: > 49.8 µM (inactive)
- EC50 [20]: 49.8 µM (not active)

SMILES: Cc1c(Cl)c(-c2nnc(S)n2-c2ccccc2)nn1C
- AC50 [21]: < 0.014 µM (active)
- EC50 [22]: > 79.4 µM (not active)
- EC50 [23]: > 79.4 µM (inactive)
- EC50 [24]: > 79.4 µM (not active)

The remaining lines, values ahead:

- EC50 [1]: 0.645 µM (active)
- IC50 (Mu-type opioid receptor [2]): > 32 µM (inactive)
- EC50 [3]: 0.251 µM
- EC50 [4]: > 32 µM (inactive)
- EC50 [5]: < 0.5 µM
- IC50 [6]: > 32 µM (inactive)
- EC50 [7]: 0.168 µM (active)
- EC50 [8]: > 32 µM (inactive)
- EC50 (Mu-type opioid receptor [9]): > 32 µM (inactive)
- IC50 [10]: > 32 µM (inactive)
- EC50 (Mu-type opioid receptor [11]): > 32 µM (inactive)
- IC50 (Coagulation factor XII): > 50 µM (inactive)
- IC50 [12]: > 32 µM (inactive)
SMILES: CCC(C)(C(=O)NC1CCCCC1)N(Cc1ccco1)C(=O)c1ccccn1 (stereo unspecified)

- EC50 [14]: 14.6 µM (active)
- IC50 (Large T antigen): 20.8 µM (active)
- EC50 [15]: 65.8 µM (active)
- IC50 [16]: 5.37 µM (active)
- IC50 [17]: > 100 µM (inactive)
- IC50 [18]: > 100 µM (inactive)
SMILES: CCOc1ccc(S(=O)(=O)Nc2cc(Sc3nnc[nH]3)c3oc(=O)sc3c2)cc1
